# In US10654853B2, “Spiro-condensed pyrrolidine derivatives as deubiquitylating enzymes (DUB) inhibitors” (MISSION THERAPEUTICS LIMITED, priority 2016, dated 2020):
# Target: Cezanne 1 (Homo sapiens (Human), UniProt Q6GQQ9)
# Assay: Cezanne 1 biochemical IC50 assay (fluorescence polarisation, TAMRA labelled peptide linked to ubiquitin)
# Conditions: Cezanne 1 biochemical IC50 assay; 30 min pre-incubation, read after 2 hr at room temperature; read-out: IC50 range
# In short: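 FLAG-tagged Cezanne 1, expressed in HEK293T and FLAG-purified, was preincubated with compound for 30 min at room temperature in Tris pH 7.5 buffer with Tween 20, BSA and β-mercaptoethanol. Reactions were started with 50 nM TAMRA-peptide isopeptide-linked to ubiquitin. Fluorescence polarisation (ex 540/em 590 nm) was read immediately and after 2 h.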
# Chain of Cezanne 1 (Q6GQQ9 whole entry): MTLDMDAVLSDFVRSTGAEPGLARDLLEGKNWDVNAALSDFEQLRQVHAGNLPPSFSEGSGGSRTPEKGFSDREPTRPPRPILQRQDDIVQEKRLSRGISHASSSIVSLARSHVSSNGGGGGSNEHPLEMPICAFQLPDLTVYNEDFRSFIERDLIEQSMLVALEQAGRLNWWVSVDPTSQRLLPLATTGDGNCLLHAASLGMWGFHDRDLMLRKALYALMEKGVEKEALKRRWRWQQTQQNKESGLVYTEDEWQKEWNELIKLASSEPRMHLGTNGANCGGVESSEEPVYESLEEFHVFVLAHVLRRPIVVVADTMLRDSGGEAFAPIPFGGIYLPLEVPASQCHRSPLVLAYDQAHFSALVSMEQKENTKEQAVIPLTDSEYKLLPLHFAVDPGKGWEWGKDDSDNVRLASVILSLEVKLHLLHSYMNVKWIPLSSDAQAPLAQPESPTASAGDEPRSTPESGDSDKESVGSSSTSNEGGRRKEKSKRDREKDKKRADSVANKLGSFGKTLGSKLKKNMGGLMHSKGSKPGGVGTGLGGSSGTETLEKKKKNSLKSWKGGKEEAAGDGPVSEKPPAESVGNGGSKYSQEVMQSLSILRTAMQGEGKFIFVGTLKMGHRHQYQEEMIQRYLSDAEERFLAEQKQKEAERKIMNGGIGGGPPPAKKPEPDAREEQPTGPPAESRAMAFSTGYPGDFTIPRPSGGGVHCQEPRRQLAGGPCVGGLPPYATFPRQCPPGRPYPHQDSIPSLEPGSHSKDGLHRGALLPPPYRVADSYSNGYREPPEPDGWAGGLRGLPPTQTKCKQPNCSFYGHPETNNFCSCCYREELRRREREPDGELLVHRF
row,IC50,Compound
1,100 to 1000 nM,"N#CN1CCC2(Cc3cc(-c4ccc(CN5CCOCC5)cc4)ccc3NC2=O)C1 (stereo not drawn) [Example 129, 6′-(4-(Morpholinomethyl)phenyl)-2′-oxo-1′,4′-dihydro-2′H-spiro[pyrrolidine-3,3′-quinoline]-1-carbonitrile]"
2,100 to 1000 nM,"Cc1cc(-c2ccc3c(c2)CC2(CCN(C#N)C2)C(=O)N3)ccn1 (stereo not drawn) [Example 131, 6′-(2-Methylpyridin-4-yl)-2′-oxo-1′,4′-dihydro-2′H-spiro[pyrrolidine-3,3′-quinoline]-1-carbonitrile]"
3,100 to 1000 nM,"Cc1ccc2[nH]ncc2c1-c1ccc2c(c1)NC(=O)[C@@]1(CCN(C#N)C1)C2 [Example 132, (R)-7′-(5-Methyl-H-indazol-4-yl)-2′-oxo-1′,4′-dihydro-2′H-spiro[pyrrolidine-3,3′-quinoline]-1-carbonitrile]"
4,100 to 1000 nM,"N#CN1CCC2(Cc3ccc(-c4cccc5[nH]ncc45)cc3NC2=O)C1 (stereo not drawn) [Example 133, 7′-(1H-Indazol-4-yl)-2′-oxo-1′,4′-dihydro-2′H-spiro[pyrrolidine-3,3′-quinoline]-1-carbonitrile]"
5,100 to 1000 nM,"COc1ccc(-c2cnc3c(c2)NC(=O)C2(CCN(C#N)C2)O3)c(C)n1 (stereo not drawn) [Example 138, 7-(6-Methoxy-2-methylpyridin-3-yl)-2-oxo-1,2-dihydrospiro[pyrido[2,3-b][1,4]oxazine-3,3′-pyrrolidine]-1′-carbonitrile]"
6,1000 to 10000 nM,"N#CN1CCC2(C1)Oc1nc(C(=O)Nc3ccc(F)cc3)ccc1NC2=O (stereo not drawn) [Example 141, 1′-Cyano-N-(4-fluorophenyl)-2-oxo-1,2-dihydrospiro[pyrido[2,3-b][1,4]oxazine-3,3′-pyrrolidine]-6-carboxamide]"
7,1000 to 10000 nM,"N#CN1CCC2(C1)Oc1nc(C(=O)N3CCCCC3)ccc1NC2=O (stereo not drawn) [Example 142, 2-Oxo-6-(piperidine-1-carbonyl)-1,2-dihydrospiro[pyrido[2,3-b][1,4]oxazine-3,3′-pyrrolidine]-1′-carbonitrile]"
8,100 to 1000 nM,"N#CN1CCC2(C1)Oc1nc(C(=O)Nc3ccccc3)ccc1NC2=O (stereo not drawn) [Example 143, 1′-Cyano-2-oxo-N-phenyl-1,2-dihydrospiro[pyrido[2,3-b][1,4]oxazine-3,3′-pyrrolidine]-6-carboxamide]"
9,100 to 1000 nM,"N#CN1CCC2(C1)Oc1nc(C(=O)Nc3ccccc3F)ccc1NC2=O (stereo not drawn) [Example 144, 1′-Cyano-N-(2-fluorophenyl)-2-oxo-1,2-dihydrospiro[pyrido[2,3-b][1,4]oxazine-3,3′-pyrrolidine]-6-carboxamide]"
10,1000 to 10000 nM,"N#CN1CCC2(C1)Nc1nc(-c3ccccc3)ccc1NC2=O (stereo not drawn) [Example 147, 2-Oxo-6-phenyl-1,4-dihydro-2H-spiro[pyrido[2,3-b]pyrazine-3,3′-pyrrolidine]-1′-carbonitrile]"

# The remaining lines, values behind:
row,Compound,IC50
1,"CN(C)C(=O)c1cccc(-c2ccc3c(c2)CC2(CCN(C#N)C2)C(=O)N3)c1 (stereo not drawn) [Example 130, 3-(1-Cyano-2′-oxo-1′,4′-dihydro-2′H-spiro[pyrrolidine-3,3′-quinolin]-6′-yl)-N,N-dimethylbenzamide]",100 to 1000 nM
2,"N#CN1CCC2(Cc3cc(-c4cccc5[nH]ncc45)ccc3NC2=O)C1 (stereo not drawn) [Example 134, 6′-(1H-Indazol-4-yl)-2′-oxo-1′,4′-dihydro-2′H-spiro[pyrrolidine-3,3′-quinoline]-1-carbonitrile]",100 to 1000 nM
3,"N#CN1CCC2(C1)Oc1ncc(-c3cccc4[nH]ncc34)cc1NC2=O (stereo not drawn) [Example 135, 7-(1H-Indazol-4-yl)-2-oxo-1,2-dihydrospiro[pyrido[2,3-b][1,4]oxazine-3,3′-pyrrolidine]-1′-carbonitrile]",< 100 nM
4,"Cn1ncc2c(-c3cnc4c(c3)NC(=O)C3(CCN(C#N)C3)O4)cccc21 (stereo not drawn) [Example 136, 7-(1-Methyl-1H-indazol-4-yl)-2-oxo-1,2-dihydrospiro[pyrido[2,3-b][1,4]oxazine-3,3′-pyrrolidine]-1′-carbonitrile]",< 100 nM
5,"N#CN1CCC2(C1)Oc1ncc(-c3cccc4c3cnn4CCO)cc1NC2=O (stereo not drawn) [Example 137, 7-(1-(2-Hydroxyethyl)-1H-indazol-4-yl)-2-oxo-1,2-dihydrospiro[pyrido[2,3-b][1,4]oxazine-3,3′-pyrrolidine]-1′-carbonitrile]",< 100 nM
6,"N#CN1CCC2(C1)Oc1nc(-c3cccc4[nH]ncc34)ccc1NC2=O (stereo not drawn) [Example 139, 6-(1H-Indazol-4-yl)-2-oxo-1,2-dihydrospiro[pyrido[2,3-b][1,4]oxazine-3,3′-pyrrolidine]-1′-carbonitrile]",100 to 1000 nM
7,"COCCn1ncc2c(-c3cnc4c(c3)NC(=O)C3(CCN(C#N)C3)O4)cccc21 (stereo not drawn) [Example 140, 7-(1-(2-Methoxyethyl)-1H-indazol-4-yl)-2-oxo-1,2-dihydrospiro[pyrido[2,3-b][1,4]oxazine-3,3′-pyrrolidine]-1′-carbonitrile]",100 to 1000 nM
8,"Cc1cnn(C)c1-c1cnc2c(c1)NC(=O)C1(CCN(C#N)C1)N2 (stereo not drawn) [Example 146, 7-(1,4-Dimethyl-1H-pyrazol-5-yl)-2-oxo-1,4-dihydro-2H-spiro[pyrido[2,3-b]pyrazine-3,3′-pyrrolidine]-1′-carbonitrile]",100 to 1000 nM
